Results on 27 compounds are retold here after US20090028818A1, “Heterocyclic antiviral compounds” (Roche Palo Alto LLC, priority 2007, published 2009).

T1 sequence (P51681 whole entry): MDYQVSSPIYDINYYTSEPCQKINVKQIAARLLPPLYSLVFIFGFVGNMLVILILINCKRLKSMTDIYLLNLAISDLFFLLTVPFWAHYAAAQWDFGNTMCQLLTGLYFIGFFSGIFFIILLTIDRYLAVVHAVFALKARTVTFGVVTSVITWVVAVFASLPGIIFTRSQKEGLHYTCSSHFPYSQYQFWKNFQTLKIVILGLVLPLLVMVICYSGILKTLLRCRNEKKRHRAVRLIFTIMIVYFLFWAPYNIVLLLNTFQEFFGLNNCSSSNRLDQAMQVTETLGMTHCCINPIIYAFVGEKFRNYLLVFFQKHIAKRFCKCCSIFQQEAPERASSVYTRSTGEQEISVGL

The subject of the first assay is collagen-induced arthritis.
Experiment: not given
To be noted: collagen-induced arthritis model; cited from earlier work.
In the case of TAK-779, the “incidence and severity of arthritis” value was “reduce both the incidence and severity of arthritis”.

A further assay has as its target T1, Human CCR5 receptor (Homo sapiens, UniProt P51681).
T1 construct: expressed in transfected cells
Description: Human CCR5 receptor-ligand binding assay. To be noted: CHO-Gα16-hCCR5 cells, 125I RANTES radioligand. The text has this: Human CCR5 receptor (Genebank ID: 29169292) was cloned into mammalian expression vector, pTarget (Promega). The construct was transfected into CHO-Gα16 cells by using Fugene Reagent (Roche). Clones were selected under antibiotic pressure (G418 and Hygromycin) and sorted 4 times with a fluorescence activates cell sorter and a monoclonal antibody specific for CCR5 receptor (BD Biosciences Pharmigen, Mab 2D7, Cat. No. 555993). The clone with highest expression (100,000 copies per cell) was chosen for the binding assays.
Adherent cells in […] tissue culture flask (˜90% confluent) were harvested using 1 mM EDTA in PBS (phosphate-buffered saline) without Ca^2+ and Mg^2+. Cells were washed twice with PBS containing no Ca^2+ and Mg^2+. CHO-Gα16-hCCR5 cells were then resuspended (1×10^6/mL) in ice cold binding buffer (50 mM HEPES, 1 mM CaCl2, 5 mM MgCl2, 0.5% BSA, 0.05% NaN3, pH 7.24), pH 7.4), supplemented with freshly made 0.5% BSA and 0.05% NaN3.
Eighty μl CHO-Gα16-hCCR5 (1×10^6/mL) cells were added to 96 well plates. All dilutions were made in binding buffer (50 mM HEPES, 1 mM CaCl2, 5 mM MgCl2, 0.5% BSA, 0.05% NaN3, pH 7.24).
The plates were incubated on a cell shaker at RT for 2 h with a final concentration of 0.1 nM ^125I RANTES or ^125I MIP-1α or ^125I MIP-1β. The compound dilutions were made in PBS, 1% BSA. Total reaction volume was 100 μl per well. The test compounds were added to the cells prior to the addition of radioligand.
After incubation, the cells were harvested onto GF/C filter plates using Packard cell harvester. Filters were pretreated with 0.3% PEI/0.2% BSA for 30 min. The filter plate was washed rapidly 5 times with 25 mM HEPES, 500 mM NaCl, 1 mM CaCl2 and 5 mM MgCl2 adjusted to pH 7.1. Plates were dried in oven (70° C.) for 20 min, added with 40 μl scintillation fluid and sealed with Packard TopSeal-A. Packard Top Count was used to measure of the radioactivity for 1 min per well.
Total binding was determined with control wells added with radioisotope and buffer and the non-specific binding was determined using an excess cold RANTES to some of the control wells. Specific binding was determined by subtracting the non-specific form total binding. Results are expressed as the percentage of specific ^125I RANTES binding. IC50 values were determined using varying concentrations of the test ligand in triplicates and the data was analyzed using GraphPad Prism (GraphPad, San Diego, Calif.). c, […]
Consider `Cc1noc(C(F)(F)F)c1C(=O)N1CCC(C)(N2CCC(N3C(=O)N(C[C@H]4CC[C@H](O)CC4)C[C@H]3c3ccccc3)CC2)CC1` [I-24, (R)-1-(4-Hydroxy-cyclohexylmethyl)-3-[4′-methyl-1′-(3-methyl-5-trifluoromethyl-isoxazole-4-carbonyl)-[1,4′]bipiperidinyl-4-yl]-4-phenyl-imidazolidin-2-one], for which the IC50 – broadly, the concentration that gives 50% inhibition – stood at 7.1 nM.

With `CCCCC1CN(C2CCOCC2)C(=O)N1C1CCN(C2(C)CCN(C(=O)c3c(C)cc(C#N)nc3C)CC2)CC1` (stereo not shown) [I-1, 5-{4-[5-Butyl-2-oxo-3-(tetrahydro-pyran-4-yl)-imidazolidin-1-yl]-4′-methyl-[1,4′]bipiperidinyl-1′-carbonyl}-4,6-dimethyl-pyridine-2-carbonitrile], the IC50 was 8.5 nM.

As to `CCCCC1CN(CC2CCOCC2)C(=O)N1C1CCN(C2(C)CCN(C(=O)c3c(C)ncnc3C)CC2)CC1` (stereo not shown) [I-3, 4-Butyl-3-[1′-(4,6-dimethyl-pyriridine-5-carbonyl)-4′-methyl-[1,4′]bipiperidinyl-4-yl]-1-(tetrahydro-pyran-4-ylmethyl)-imidazolidin-2-one], the IC50 is 110 nM.

For `Cc1ncnc(C)c1C(=O)N1CCC(C)(N2CCC(N3C(=O)N(C4CCOCC4)C[C@H]3c3ccccc3)CC2)CC1` [I-13], the IC50 came out at 90 nM.

`CCCCC1CN(C2CCOCC2)C(=O)N1C1CCN(C2(C)CCN(C(=O)c3c(C)ncnc3C)CC2)CC1` (stereo not shown) [I-2] yielded an IC50 of 969 nM.

The compound `CCO[C@H]1CC[C@H](CN2C[C@@H](c3ccccn3)N(C3CCN(C4(C)CCN(C(=O)c5c(C)cc(C#N)nc5C)CC4)CC3)C2=O)CC1` [I-26, 5-{4-[(S)-3-(4-Ethoxy-cyclohexylmethyl)-2-oxo-5-pyridin-2-yl-imidazolidin-1-yl]-4′-methyl-[1,4′]bipiperidinyl-1′-carbonyl}-4,6-dimethyl-pyridine-2-carbonitrile] gave an IC50 of 24.7 nM.

Turning to `Cc1cc(C#N)nc(C)c1C(=O)N1CCC(C)(N2CCC(N3C(=O)N(CC4CCN(C(N)=O)CC4)C[C@H]3c3ccccc3)CC2)CC1` [I-21, 4-{(R)-3-[1′-(6-Cyano-2,4-dimethyl-pyridine-3-carbonyl)-4′-methyl-[1,4′]bipiperidinyl-4-yl]-2-oxo-4-phenyl-imidazolidin-1-ylmethyl}-piperidine-1-carboxylic acid amide], the IC50 turned out to be 44 nM.

Turning to `Cc1cc(C#N)nc(C)c1C(=O)N1CCC(C)(N2CCC(N3C(=O)N(C4CCC(O)CC4)C[C@H]3c3ccccc3)CC2)CC1` (stereo partly drawn) [I-23, 5-{4-[(R)-3-(4-Hydroxy-cyclohexyl)-2-oxo-5-phenyl-imidazolidin-1-yl]-4′-methyl-[1,4′]bipiperidinyl-1′-carbonyl}-4,6-dimethyl-pyridine-2-carbonitrile], the IC50 was 20.6 nM.

`CCO[C@H]1CC[C@H](CN2C[C@@H](c3ccccc3)N(C3CCN(C4(C)CCN(C(=O)c5c(C)ncnc5C)CC4)CC3)C2=O)CC1` [I-9] came in with an IC50 of 12.6 nM.

The compound `CCCCC1CN(CC2CCOCC2)C(=O)N1C1CCN(C2(C)CCN(C(=O)c3c(C)cc(C#N)nc3C)CC2)CC1` (stereo not shown) [I-4] registered an IC50 of 4.4 nM.

In the case of `CC(=O)N1CCC(CN2C[C@@H](c3ccccc3)N(C3CCN(C4(C)CCN(C(=O)c5c(C)cc(C#N)nc5C)CC4)CC3)C2=O)CC1` [I-20, 5-{4-[(R)-3-(1-Acetyl-piperidin-4-ylmethyl)-2-oxo-5-phenyl-imidazolidin-1-yl]-4′-methyl-[1,4′]bipiperidinyl-1′-carbonyl}-4,6-dimethyl-pyridine-2-carbonitrile], the IC50 worked out at 42.5 nM.

`Cc1cc(C#N)nc(C)c1C(=O)N1CCC(C)(N2CCC(N3C(=O)N(C4CCOCC4)C[C@H]3c3ccccc3)CC2)CC1` [I-12]: the IC50 is 90 nM.

In the case of `Cc1cc(C#N)nc(C)c1C(=O)N1CCC(C)(N2CCC(N3C(=O)N(CC4CCN(CC(F)F)CC4)C[C@H]3c3ccccc3)CC2)CC1` [I-15], the IC50 was 18.3 nM.

As to `Cc1ncnc(C)c1C(=O)N1CCC(C)(N2CCC(N3C(=O)N(CC4CCOCC4)C[C@H]3c3ccccc3)CC2)CC1` [I-5, (R)-3-[1′-(4,6-Dimethyl-pyrimidine-5-carbonyl)-4′-methyl-[1 ,4′]bipiperidinyl-4-yl]-4-phenyl-1-(tetrahydro-pyran-4-ylmethyl)-imidazolidin-2-one], the half-maximal inhibitory concentration (IC50) is 23.7 nM.

Consider `CCO[C@H]1CC[C@H](CN2C[C@@H](c3ccccc3)N(C3CCN(C4(C)CCN(C(=O)c5c(C)noc5C(F)(F)F)CC4)CC3)C2=O)CC1` [I-11], for which the IC50 was 6.8 nM.

`Cc1cc(C#N)nc(C)c1C(=O)N1CCC(C)(N2CCC(N3C(=O)N(CC4CCOC4)CC3c3ccccc3)CC2)CC1` (stereo not shown) [I-25] showed an IC50 of 54.4 nM.

As for `CCO[C@H]1CC[C@H](CN2C[C@@H](c3ccccc3)N(C3CCN(C4(C)CCN(C(=O)c5c(C)cc(C#N)nc5C)CC4)CC3)C2=O)CC1` [I-10], the IC50 was determined as 10.6 nM.

As for `Cc1ncnc(C)c1C(=O)N1CCC(C)(N2CCC(N3C(=O)N(CC4CCN(S(C)(=O)=O)CC4)C[C@H]3c3ccccc3)CC2)CC1` [I-19], the IC50 came to 117 nM.

Take `Cc1noc(C(F)(F)F)c1C(=O)N1CCC(C)(N2CCC(N3C(=O)N(CC4CCOCC4)C[C@H]3c3ccccc3)CC2)CC1` [I-8]: the IC50 stood at 5.1 nM.

Consider `Cc1cc(C#N)nc(C)c1C(=O)N1CCC(C)(N2CCC(N3C(=O)N(CC4CCN(S(C)(=O)=O)CC4)C[C@H]3c3ccccc3)CC2)CC1` [I-18, 5-{4-[(R)-3-(1-Methanesulfonyl-piperidin4-ylmethyl)-2-oxo-5-phenyl-imidazolidin-1-yl]-4′-methyl-[1,4′]bipiperidinyl-1′-carbonyl}-4,6-dimethyl-pyridine-2-carbonitrile], for which the IC50 is 36.6 nM.

Compound `Cc1ncnc(C)c1C(=O)N1CCC(C)(N2CCC(N3C(=O)N(CC4CCOCC4)CC3c3cccc(F)c3)CC2)CC1` (stereo not shown) [I-27] came in with an IC50 of 89.4 nM.

`Cc1ncnc(C)c1C(=O)N1CCC(C)(N2CCC(N3C(=O)N(CC4CCN(CC(F)F)CC4)C[C@H]3c3ccccc3)CC2)CC1` [I-14, (R)-1-[1-(2,2-Difluoro-ethyl)-piperidin-4-ylmethyl]-3-[1′-(4,6-dimethyl-pyrimidine-5-carbonyl)-4′-methyl-[1,4′]bipiperidinyl-4-yl]-4-phenyl-imidazolidin-2-one] gave an IC50 of 26.4 nM.

For `Cc1ncnc(C)c1C(=O)N1CCC(C)(N2CCC(N3C(=O)N(CC4CCOCC4)CC3c3ccccc3)CC2)CC1` (stereo not shown) [I-6, 3-[1′-(4,6-Dimethyl-pyrimidine-5-carbonyl)-4′-methyl-[1,4′]bipiperidinyl-4-yl]-4-phenyl-1-(tetrahydro-pyran4-ylmethyl)-imidazolidin-2-one], the IC50 was determined as 27.5 nM.

The compound `COC(=O)N1CCC(CN2C[C@@H](c3ccccc3)N(C3CCN(C4(C)CCN(C(=O)c5c(C)cc(C#N)nc5C)CC4)CC3)C2=O)CC1` [I-17] yielded an IC50 of 35.7 nM.

As for `Cc1cc(C#N)nc(C)c1C(=O)N1CCC(C)(N2CCC(N3C(=O)N(CC4CCOCC4)C[C@H]3c3ccccc3)CC2)CC1` [I-7], the IC50 turned out to be 11.2 nM.

The compound `COC(=O)N1CCC(CN2C[C@@H](c3ccccc3)N(C3CCN(C4(C)CCN(C(=O)c5c(C)ncnc5C)CC4)CC3)C2=O)CC1` [I-16, 4-{(R)-3-[1′-(4,6-Dimethyl-pyrimidine-5-carbonyl)-4′-methyl-[1,4′]bipiperidinyl-4-yl]-2-oxo-4-phenyl-imidazolidin-1-ylmethyl}-piperidine-1-carboxylic acid methyl ester] came in with an IC50 of 25.8 nM.

A further assay relates to NLBal pseudotyped HIV-1. Description: Antiviral assay, luciferase reporter in JC53BL cells. It is filed as cell-based. The conditions noted are these: Human immunodeficiency virus 1, JC53BL, 72 h, read-out: Antiviral Assay IC50. Here is the method: The sensitivity of a recombinant HIV-1 virus pseudotyped with the envelope proteins of the CCR5-tropic virus NLBal to test compounds was determined in a Luciferase reporter assay using JC53BL cells. NLBal pseudotyped HIV-1 was generated by calcium phosphate transfection of 293T cells (ATCC) with equal amounts of DNA of an envelope-deleted HIV-1 plasmid and of a NLBal envelope expression plasmid. The media (DMEM, 10% fetal bovine serum, 1% Penicillin/streptomycin, 1% Glutamine, all Gibco) was changed 16 h post-transfection and virus containing supernatant was harvested 48 h post-transfection. To determine the sensitivity of NLBal pseudotyped HIV-1, 25.000 JC53BL cells (NIH AIDS Reagent Program) were infected with NLBal pseudotyped HIV-1 in presence of a drug gradient in white 96 well plates (Greiner Bio-one). The volume was adjusted to 200 μL using assay media (DMEM, 10% fetal bovine serum, 1% Penicillin/streptomycin, 1% Glutamine). After incubation at 37° C., 90% relative humidity, 5% CO2 for 3 days, 50 μL of Steady-Glo® Luciferase reagent (Promega) was added, incubated for 5 min at RT and luminescence was measured using a luminometer (Luminoskan, Thermo). The 50% and 90% inhibitory concentrations were calculated using Microsoft XL Fit 4 software.
Take `CCCCC1CN(C2CCOCC2)C(=O)N1C1CCN(C2(C)CCN(C(=O)c3c(C)cc(C#N)nc3C)CC2)CC1` (stereo not shown) [I-1, 5-{4-[5-Butyl-2-oxo-3-(tetrahydro-pyran-4-yl)-imidazolidin-1-yl]-4′-methyl-[1,4′]bipiperidinyl-1′-carbonyl}-4,6-dimethyl-pyridine-2-carbonitrile]: the IC50 came out at 19.8 nM.
